Measurements as given in patent publication US20140045805A1, “Fragrance Compositions and Other Compositions Which Contain Naturally Occurring Substances Found in Corals” (priority 2007, published 2014).
Read-outs that look alike come from different tables or passages of the source.

Key:
[1] = test system: peripheral nasal chemosensory receptors; settings: androstadienone 27 picograms, muricin aglycone 30 picograms; adapted from Monti-Bloch et al. (1994); cited from earlier work
[2] = test system: humans; settings: Grosser et al., 2000, cited from earlier work; for Effect on negative affect / negativity: administered nasally to humans

| SMILES | melting point | Depolarization of the electrogram of peripheral nasal chemosensory receptors [1] | Effect on negative affect / negativity [2] | Effect on negative affect / negativity ([2]; listed as Androsta-4,16-dien-3-one) | Effect on social warmth and friendliness, personal well-being and arousal/excitement ([2]; humans) |
| --- | --- | --- | --- | --- | --- |
| C=C[C@H]1CC[C@H]2[C@@H]3CC[C@H]4CC(=O)C=C[C@]4(C)[C@H]3CC[C@]12C | 124 to 126 °C | – | – | – | – |
| C[C@@]12C=CC[C@H]1[C@@H]1CCC3=CC(=O)CC[C@]3(C)[C@H]1CC2 [androstadienone, androsta-4,16-dien-3-one] | – | robust depolarization | decreased negativity | reduction of negative affect | no effect |
